In paper PMC4769088, “Antifungal Activity and Action Mechanism of Histatin 5-Halocidin Hybrid Peptides against Candida ssp” (PLoS ONE, 2016):
Where a SMILES comes first, the peptide text is derived from it. Bridges are numbered along the chain shown (N, C = ends). Roman numbers before positions name the chains, in order. Where no end group is shown, it is not given here.

Legend:
[1] = CD spectra, secondary structure analysis; format: physicochemical; settings: 200 μg/ml peptide
Experimental: Circular dichroism (CD) spectra of the six peptides (Hst5, P113, HHP1, di-PH2, di-WP2 and di-18Hc) were measured with a J-715 spectropolarimeter (Jasco, Tokyo, Japan). Two hundred micrograms of each peptide was resuspended in 1 ml of 10 mM NaPB (pH 7.0) (i) without other additives, (ii) with 10% laminarin (LAM) or (iii) with 50% trifluoroethanol (TFE) (a known helix-inducing solvent). The spectra were measured at room temperature in a 1-mm-path-length quartz cell. The scanning speed was 10 nm/min (180 to 260 nm), and each spectrum was the average of five scans.
Fig 3 CD spectra of Hst5, P113, di-18Hc and hybrid peptides. This study was performed with one concentration (200 μg/ml) of each peptide in various buffers: 10 mM sodium phosphate buffer (Red line), 50% TFE in phosphate buffer (green line) and 20 mg of laminarin in phosphate buffer.

[2] = system: laminarin (β-1,3-glucan polymer), C. albicans cell wall component; assay: Binding/radial diffusion assay with laminarin; format: cell-based; settings: peptide final 180 μg/ml, pre-incubated 2 h at 37°C, radial diffusion assay
Experimental: The candidacidal activities of the peptides were tested by using standard microdilution plate assays, radial diffusion assays and broth dilution assay slightly modified from the procedure recommended by the National Committee for Clinical Laboratory Standards. For the candidacidal assays, C. albicans cells were grown in YPD medium and washed twice with 10 mM sodium phosphate buffer (NaPB; Na2HPO4, NaH2PO4, pH 7.4). The cells (1 x 10^6) were then mixed with different concentrations of peptides and incubated at 30°C with constant shaking for 60 min. For energy depletion experiments, cells were pre-incubated with 10 mM NaPB containing 5 mM NaN3 at 30°C for 60 min before the addition of peptides. The cell suspensions were diluted in 10 mM NaPB and aliquots of 500 cells were spread onto YPD agar plates then incubated for 24 h at 30°C to visualize the surviving colonies. Cell survival was expressed as a percentage of that for the control, and the loss of viability was calculated as [1 x (number of colonies from peptide-treated cells/number of colonies from control cells)] x 100. Candidacidal assays were performed in triplicate. For the radial diffusion assay, C. albicans cells were grown in YPD medium overnight and washed twice with 10 mM NaPB. Washed yeast-phase C. albicans cells (1 x 10^6 CFU) were trapped in thin underlay gels containing 9 mM sodium phosphate, 1 mM sodium citrate buffer, 1% (wt/vol) agarose (A6013; Sigma), and 0.3 mg of Sabouraud dextrose broth (Difco)/ml. After incubation at 37°C for 3 h, a 10 ml overlay gel of 1% agarose and 6% Sabouraud dextrose broth was poured on the underlay gel and then the plates were incubated overnight at 37°C. The clear-zone diameters were measured to the nearest 0.1 mm and graphed against the peptide concentration. Zone diameters were expressed in units (0.1 mm = 1 unit). For the broth dilution assay, the Candida strains were cultured in LYM broth for 18 h at 30°C. The numbers of yeasts were counted using a hemocytometer. Stock peptide solutions were prepared to a concentration of 320 μg/ml in distilled water, and were then serially diluted twofold, to 5 μg/ml. 100 μl aliquots of the diluted culture media containing candida cells (1 x 10^3) were dispensed into the wells of 96-well polypropylene microtiter plates (Costar 3879, Corning, NY), to which peptide solution (11 μl) was then added. […] The antifungal activities were evaluated after 24 h of incubation at 30°C by the observation of visible turbidity the wells. The MIC values were expressed as intervals (a–b), with a representing the highest tested concentration at which microbes continue to grow, and b representing the lowest concentration at which growth inhibition could be detected.
Binding of hybrid peptides to the surface of C. albicans cells was examined by assessing the inhibitory effect of fungal cell wall components on the antimicrobial activity of the hybrid peptides. 20 μl of a pre-determined concentration of the peptides was added to 80 μl of each polysaccharide (0.07–40 mg/ml in 10 mM NaPB) including laminarin (β-1,3-glucan polymer; Sigma), pustulan (β-1,6-glucan polymer; Calbiochem) or mannan (mannose polymer; Sigma) and incubated for 2 h at 37°C. The inhibitory effects of the polysaccharides on the antimicrobial activity of the peptides were assessed by radial diffusion assay as described above. […]

[3] = solvent 10mM NaPB (pH 7.0), room temperature, average of five scans

Compound | Secondary structure (%) Beta ([1]; solvent 10mM NaPB (pH 7.0)) [%] | Secondary structure (%) Random ([1]; solvent 10mM NaPB (pH 7.0)) [%] | Secondary structure (%) Turn ([1]; solvent 10mM NaPB (pH 7.0)) [%] | Secondary structure (%) Helix [1, 3] [%] | Secondary structure (%) Beta ([1]; solvent 50% TFE in 10 mM NaPB) [%] | Secondary structure (%) Helix ([1]; solvent 50% TFE in 10 mM NaPB) [%] | Secondary structure (%) Random ([1]; solvent 50% TFE in 10 mM NaPB) [%] | Secondary structure (%) Turn ([1]; solvent 50% TFE in 10 mM NaPB) [%] | laminarin concentration at which antimicrobial activity was drastically decreased by pre-incubation [2] [mg/mL]
AKRHHGYKRKFH-NH2 [P113] | 0.0 | 95.3 | 4.7 | 0.0 | 34.8 | 4.4 | 60.8 | 0.0 | 5
CC(C)C[C@H](NC(=O)[C@@H](N)Cc1c[nH]c2ccccc12)C(=O)N[C@@H](CC(N)=O)C(=O)N[C@@H](C)C(=O)N[C@@H](CCCCN)C(=O)N[C@@H](CCCNC(=N)N)C(=O)N[C@@H](Cc1c[nH]cn1)C(=O)N[C@@H](Cc1c[nH]cn1)C(=O)NCC(=O)N[C@@H](Cc1ccc(O)cc1)C(=O)N[C@@H](CCCCN)C(=O)N[C@@H](CSSC[C@H](NC(=O)[C@H](CCCCN)NC(=O)[C@H](Cc1ccc(O)cc1)NC(=O)CNC(=O)[C@H](Cc1c[nH]cn1)NC(=O)[C@H](Cc1c[nH]cn1)NC(=O)[C@H](CCCNC(=N)N)NC(=O)[C@H](CCCCN)NC(=O)[C@H](C)NC(=O)[C@H](CC(N)=O)NC(=O)[C@H](CC(C)C)NC(=O)[C@@H](N)Cc1c[nH]c2ccccc12)C(=O)N[C@@H](CCCCN)C(=O)N[C@@H](Cc1ccccc1)C(=O)N[C@@H](Cc1c[nH]cn1)C(N)=O)C(=O)N[C@@H](CCCCN)C(=O)N[C@@H](Cc1ccccc1)C(=O)N[C@@H](Cc1c[nH]cn1)C(N)=O [di-WP2] (I: H-WLNAKRHHGYKCKFH-NH2 / II: H-WLNAKRHHGYKCKFH-NH2; disulfide I:12-II:12 (inferred); N-terminus assumed) | 22.0 | 63.2 | 14.8 | 0.0 | 25.7 | 7.8 | 52.5 | 13.9 | 1.25
CC(C)C[C@H](NC(=O)CNC(=O)[C@H](Cc1c[nH]cn1)NC(=O)[C@H](Cc1c[nH]cn1)NC(=O)[C@H](CC(C)C)NC(=O)[C@H](CC(C)C)NC(=O)[C@H](C)NC(=O)[C@H](CC(N)=O)NC(=O)[C@H](CC(C)C)NC(=O)[C@@H](N)Cc1c[nH]c2ccccc12)C(=O)N[C@@H](CC(N)=O)C(=O)N[C@@H](CSSC[C@H](NC(=O)[C@H](CC(N)=O)NC(=O)[C@H](CC(C)C)NC(=O)CNC(=O)[C@H](Cc1c[nH]cn1)NC(=O)[C@H](Cc1c[nH]cn1)NC(=O)[C@H](CC(C)C)NC(=O)[C@H](CC(C)C)NC(=O)[C@H](C)NC(=O)[C@H](CC(N)=O)NC(=O)[C@H](CC(C)C)NC(=O)[C@@H](N)Cc1c[nH]c2ccccc12)C(=O)N[C@@H](C)C(=O)N[C@@H](CCCCN)C(=O)NCC(=O)N[C@H](C(=O)N[C@@H](CC(C)C)C(=O)N[C@@H](C)C(N)=O)C(C)C)C(=O)N[C@@H](C)C(=O)N[C@@H](CCCCN)C(=O)NCC(=O)N[C@H](C(=O)N[C@@H](CC(C)C)C(=O)N[C@@H](C)C(N)=O)C(C)C [di-18Hc, reference compound] (I: H-WLNALLHHGLNCAKGVLA-NH2 / II: H-WLNALLHHGLNCAKGVLA-NH2; disulfide I:12-II:12 (inferred); N-terminus assumed) | 29.2 | 61.5 | 5.5 | 3.8 | 10.4 | 47.0 | 28.4 | 14.2 | 0.3
C[C@H](NC(=O)[C@H](Cc1c[nH]cn1)NC(=O)[C@H](CO)NC(=O)[C@@H](N)CC(=O)O)C(=O)N[C@@H](CCCCN)C(=O)N[C@@H](CCCNC(=N)N)C(=O)N[C@@H](Cc1c[nH]cn1)C(=O)N[C@@H](Cc1c[nH]cn1)C(=O)NCC(=O)N[C@@H](Cc1ccc(O)cc1)C(=O)N[C@@H](CCCCN)C(=O)N[C@@H](CCCNC(=N)N)C(=O)N[C@@H](CCCCN)C(=O)N[C@@H](Cc1ccccc1)C(=O)N[C@@H](Cc1c[nH]cn1)C(=O)N[C@@H](CCC(=O)O)C(=O)N[C@@H](CCCCN)C(=O)N[C@@H](Cc1c[nH]cn1)C(=O)N[C@@H](Cc1c[nH]cn1)C(=O)N[C@@H](CO)C(=O)N[C@@H](Cc1c[nH]cn1)C(=O)N[C@@H](CCCNC(=N)N)C(=O)NCC(=O)N[C@@H](Cc1ccc(O)cc1)C(=O)O [Hst 5, Histatin 5] | 19.3 | 74.5 | 6.2 | 0 | 7.3 | 76.2 | 0.0 | 16.4 | 2.5
CC(C)C[C@H](NC(=O)CNC(=O)[C@H](Cc1c[nH]cn1)NC(=O)[C@H](Cc1c[nH]cn1)NC(=O)[C@H](CCCNC(=N)N)NC(=O)[C@H](CCCCN)NC(=O)[C@H](C)N)C(=O)N[C@@H](CC(N)=O)C(=O)N[C@@H](CSSC[C@H](NC(=O)[C@H](CC(N)=O)NC(=O)[C@H](CC(C)C)NC(=O)CNC(=O)[C@H](Cc1c[nH]cn1)NC(=O)[C@H](Cc1c[nH]cn1)NC(=O)[C@H](CCCNC(=N)N)NC(=O)[C@H](CCCCN)NC(=O)[C@H](C)N)C(=O)N[C@@H](C)C(=O)N[C@@H](CCCCN)C(=O)N[C@@H](Cc1ccccc1)C(=O)N[C@@H](Cc1c[nH]cn1)C(N)=O)C(=O)N[C@@H](C)C(=O)N[C@@H](CCCCN)C(=O)N[C@@H](Cc1ccccc1)C(=O)N[C@@H](Cc1c[nH]cn1)C(N)=O [di-PH2] (I: H-AKRHHGLNCAKFH-NH2 / II: H-AKRHHGLNCAKFH-NH2; disulfide I:9-II:9 (inferred); N-terminus assumed) | 29.2 | 70.8 | 0.0 | 0.0 | 32.9 | 10.1 | 51.8 | 5.2 | 5
